One test concerns the target T1, human H4 receptor (Homo sapiens, UniProt Q9H3N8).
T1 construct: expressed in transfected cells
Nature of the test: Binding Assay on Recombinant Human Histamine H4 Receptor. Particulars: Table 1; [3H] histamine competition binding, membranes of SK-N-MC cells transfected with human H4 receptor; average of results. In a few lines: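 Radioligand binding used membranes from SK-N-MC cells stably or transiently expressing human H4, prepared in 50 mM Tris/5 mM EDTA. Nonspecific binding was defined with 100 μM histamine. Bound radioactivity was counted after filtration on PEI-treated GF/C filters, and ">" values are the highest concentration tested.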
T1 sequence (Q9H3N8 whole entry): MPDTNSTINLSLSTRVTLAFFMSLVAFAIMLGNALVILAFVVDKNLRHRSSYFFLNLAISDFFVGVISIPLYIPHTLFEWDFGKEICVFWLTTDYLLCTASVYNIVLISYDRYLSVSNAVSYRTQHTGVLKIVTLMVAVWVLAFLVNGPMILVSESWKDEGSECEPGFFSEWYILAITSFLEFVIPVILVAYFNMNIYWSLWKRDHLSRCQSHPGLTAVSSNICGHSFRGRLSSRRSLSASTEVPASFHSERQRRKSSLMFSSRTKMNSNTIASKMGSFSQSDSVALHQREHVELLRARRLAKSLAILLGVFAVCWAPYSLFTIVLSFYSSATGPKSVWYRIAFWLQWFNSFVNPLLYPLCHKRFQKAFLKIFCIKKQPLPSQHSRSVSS
With `CC(C)c1cc(N2CCC[C@H](N)C2)nc(N)n1` [Example 10, (S)-4-(3-Amino-piperidin-1-yl)-6-isopropyl-pyrimidin-2-ylamine], the Ki stood at 159 nM. Same read-out and setting: the figure for `CC(C)c1cc(N2C[C@H]3C[C@@H]2CN3)nc(N)n1` [Example 15, (R,R)-4-(2,5-Diaza-bicyclo[2.2.1]hept-2-yl)-6-isopropyl-pyrimidin-2-ylamine] is 692 nM.

Turning to `CC(C)c1cc(N2CC3CCNC3C2)nc(N)n1` (stereo not drawn) [Example 16, 4-(cis-Hexahydro-pyrrolo[3,4-b]pyrrol-5-yl)-6-isopropyl-pyrimidin-2-ylamine], the inhibition constant Ki stood at 65 nM.

Take `Cc1cc(N2CCN(C)CC2)nc(N)n1` [Example 22, 4-Methyl-6-(4-methyl-piperazin-1-yl)-pyrimidin-2-ylamine]: the Ki was 18 nM. On the same count and under the same terms, to `Cc1nc(N)nc(N2CC3CCNC3C2)c1C` (stereo not drawn) [Example 29, 4-(cis-Hexahydro-pyrrolo[3,4-b]pyrrol-5-yl)-5,6-dimethyl-pyrimidin-2-ylamine] belongs over 10000 nM; to `CC(C)c1cc(N2C[C@H]3CCCN[C@H]3C2)nc(N)n1` [Example 20, (R,R)-4-Isopropyl-6-(cis-octahydro-pyrrolo[3,4-b]pyridin-6-yl)-pyrimidin-2-ylamine], 18 nM; to `Nc1nc(C2CCCCC2)cc(N2CC3CCNC3C2)n1` (stereo not drawn) [Example 54, 4-Cyclohexyl-6-(cis-hexahydro-pyrrolo[3,4-b]pyrrol-5-yl)-pyrimidin-2-ylamine], 2 nM.

In the case of `CC(C)c1cc(N2C[C@@H]3C[C@H]2CN3)nc(N)n1` [Example 14, (S,S)-4-(2,5-Diaza-bicyclo[2.2.1]hept-2-yl)-6-isopropyl-pyrimidin-2-ylamine], the Ki came to 673 nM.

The same test, now with this note: Table 2, data marked with an asterisk (*): obtained by the cell harvester method; [3H] histamine competition binding, SK-N-MC membranes.
For the compound `Nc1nc(C2Cc3ccccc3C2)cc(N2CC3CCCNC3C2)n1` (stereo not shown) [Example 251, 4-Indan-2-yl-6-(octahydro-pyrrolo[3,4-b]pyridin-6-yl)-pyrimidin-2-ylamine], the Ki is 20 nM.

Still in this test, the particulars now being: Table 2; [3H] histamine competition binding, membranes of SK-N-MC cells transfected with human H4 receptor; average of results.
As for `COCc1cc(N2CCNCC2)nc(N)n1` [Example 224, 4-Methoxymethyl-6-piperazin-1-yl-pyrimidin-2-ylamine], the Ki was determined as 26 nM. On the same count and under the same terms, to `CCCCc1nc(N)nc(N2CC[C@H](NC)C2)c1OC` [Example 107, (S)-4-Butyl-5-methoxy-6-(3-methylamino-pyrrolidin-1-yl)-pyrimidin-2-ylamine] belongs 104 nM. On the same count and under the same terms, to `CCCCc1cc(N(C)CCN)nc(N)n1` [Example 138, N^4-(2-Amino-ethyl)-6-butyl-N^4-methyl-pyrimidine-2,4-diamine] belongs 44 nM; to `CCCCc1cc(N2CC[C@@H](N)C2)nc(N)n1` [Example 135, (R)-4-(3-Amino-pyrrolidin-1-yl)-6-butyl-pyrimidin-2-ylamine], 4 nM. On the same count and under the same terms, to `CCCc1cc(N2C[C@H]3CN(C)C[C@H]3C2)nc(N)n1` [Example 145, 4-(cis-5-Methyl-hexahydro-pyrrolo[3,4-c]pyrrol-2-yl)-6-propyl-pyrimidin-2-ylamine] belongs 117 nM; to `Nc1nc(CC2CCCO2)cc(N2CC3CCCNC3C2)n1` (stereo not drawn) [Example 231, 4-(cis-Octahydro-pyrrolo[3,4-b]pyridin-6-yl)-6-(tetrahydro-furan-2-ylmethyl)-pyrimidin-2-ylamine], 59 nM; to `COCc1cc(N2CCN(C)CC2)nc(N)n1` [Example 223, 4-Methoxymethyl-6-(4-methyl-piperazin-1-yl)-pyrimidin-2-ylamine], 15 nM. In the case of `Nc1nc(Cc2cccs2)cc(N2CC3CCCNC3C2)n1` (stereo not drawn) [Example 217, 4-(cis-Octahydro-pyrrolo[3,4-b]pyridin-6-yl)-6-thiophen-2-ylmethyl-pyrimidin-2-ylamine], the Ki came to 9 nM. Turning to `Nc1nc(C2CCCC2)cc(N2C[C@H]3CCN[C@H]3C2)n1` [Example 83, (R,R)-4-Cyclopentyl-6-(hexahydro-pyrrolo[3,4-b]pyrrol-5-yl)-pyrimidin-2-ylamine], the Ki came out at 3 nM. In the case of `CNCCN(C)c1cc(C2CCOC2)nc(N)n1` (stereo not shown) [Example 197, N^4-Methyl-N^4-(2-methylamino-ethyl)-6-(tetrahydro-furan-3-yl)-pyrimidine-2,4-diamine], the Ki stood at 204 nM. Still for that read-out and setting: the figure for `CN[C@@H]1CCN(c2cc(Cc3ccc(Cl)cc3)nc(N)n2)C1` [Example 234, (R)-4-(4-Chloro-benzyl)-6-(3-methylamino-pyrrolidin-1-yl)-pyrimidin-2-ylamine] is 18 nM; for `NCCCNc1cc(C2CCOC2)nc(N)n1` (stereo not shown) [Example 196, N^4-(3-Amino-propyl)-6-(tetrahydro-furan-3-yl)-pyrimidine-2,4-diamine] it is 203 nM. Consider `CN[C@@H]1CCN(c2cc(C3Cc4ccccc4C3)nc(N)n2)C1` [Example 164, (R)-4-Indan-2-yl-6-(3-methylamino-pyrrolidin-1-yl)-pyrimidin-2-ylamine], for which the Ki turned out to be 4 nM. On to `CN1C[C@@H]2CN(c3cc(Cc4ccc(Cl)cc4)nc(N)n3)C[C@@H]2C1` [Example 236, 4-(4-Chloro-benzyl)-6-(cis-5-methyl-hexahydro-pyrrolo[3,4-c]pyrrol-2-yl)-pyrimidin-2-ylamine], for which the Ki was 249 nM. Same read-out and setting: the figure for `Nc1nc(Cc2ccsc2)cc(N2CCNCC2)n1` [Example 209, 4-piperazin-1-yl-6-thiophen-3-ylmethyl-pyrimidin-2-ylamine] is 2 nM; for `Nc1nc(CCc2ccccc2)cc(N2CC(N)C2)n1` [Example 248, 4-(3-Amino-azetidin-1-yl)-6-phenethyl-pyrimidin-2-ylamine] it is 9 nM.

Turning to `CN[C@@H]1CCN(c2cc(CC3CCCO3)nc(N)n2)C1` (stereo partly drawn) [Example 228, (R)-4-(3-Methylamino-pyrrolidin-1-yl)-6-(tetrahydro-furan-2-ylmethyl)-pyrimidin-2-ylamine], the Ki turned out to be 91 nM. Still for that read-out and setting: to `CNCCNc1cc(C2CCOC2)nc(N)n1` (stereo not shown) [Example 198, N^4-(2-Methylamino-ethyl)-6-(tetrahydro-furan-3-yl)-pyrimidine-2,4-diamine] belongs 2450 nM; to `Nc1nc(C2Cc3ccccc3C2)cc(N2CC[C@@H](N)C2)n1` [Example 162, (R)-4-(3-Amino-pyrrolidin-1-yl)-6-indan-2-yl-pyrimidin-2-ylamine], 5 nM. Turning to `Nc1nc(CCc2ccccc2)cc(N2CC[C@@H](N)C2)n1` [Example 178, (R)-4-(3-Amino-pyrrolidin-1-yl)-6-phenethyl-pyrimidin-2-ylamine], the Ki is 9 nM. `CCCCc1cc(N2CC3CCC(C2)N3)nc(N)n1` [Example 143, 4-Butyl-6-(3,8-diaza-bicyclo[3.2.1]oct-3-yl)-pyrimidin-2-ylamine]: the Ki came to 13 nM. Same read-out and setting: to `CN[C@@H]1CCN(c2cc(C3CC3c3ccccc3)nc(N)n2)C1` (single isomer, unassigned) [Example 255] belongs 34 nM; to `CN[C@@H]1CCN(c2cc(Cc3ccncc3)nc(N)n2)C1` [Example 205, (R)-4-(3-Methylamino-pyrrolidin-1-yl)-6-pyridin-4-ylmethyl-pyrimidin-2-ylamine], 230 nM. Consider `Nc1nc(Cc2ccccc2)cc(N2CC(N)C2)n1` [Example 166, 4-(3-Amino-azetidin-1-yl)-6-benzyl-pyrimidin-2-ylamine], for which the Ki amounted to 52 nM.

With `COCc1cc(N2CCCNCC2)nc(N)n1` [Example 117, 4-[1,4]-Diazepan-1-yl-6-methoxymethyl-pyrimidin-2-ylamine], the Ki was 42 nM.

The values above are taken from patent US8716475B2, “2-aminopyrimidine modulators of the histamine H4 receptor” (Janssen Pharmaceutica NV, priority 2007, dated 2014).
